Measurements as given in ChEMBL document CHEMBL5257074, “Structure Elucidation and Biosynthesis of Nannosterols A and B, Myxobacterial Sterols from Nannocystis sp. MNa10993” (J Nat Prod, 2023).
Activity calls are given as the source filed them.

Experiments:
Pseudomonas aeruginosa = experiment: Antibacterial activity against Pseudomonas aeruginosa PA14 (DSM 19882) assessed as inhibition of bacterial growth measured after 18 to 48 hrs by microbroth dilution assay; format: functional, organism-based; settings: time 18-48 hrs
[1] = test system: Mycolicibacterium smegmatis; experiment: Antibacterial activity against Mycobacterium smegmatis (DSM 43756) assessed as inhibition of bacterial growth measured after 18 to 28 hrs by microbroth dilution assay; format: functional, organism-based; settings: time 18-28 hrs
Escherichia coli [2] = experiment: Antibacterial activity against Escherichia coli DSM 1116T assessed as inhibition of bacterial growth measured after 18 to 48 hrs by microbroth dilution assay; format: functional, organism-based; settings: time 18-48 hrs
Mucor hiemalis = experiment: Antifungal activity against Mucor hiemalis DSM 2656 assessed as inhibition of fungal growth measured after 18 to 48 hrs by microbroth dilution assay; format: functional, organism-based; settings: time 18-48 hrs
HepG2 = experiment: Antiproliferative activity against human HepG2 cells incubated for 5 days by MTT assay; format: functional, cell-based; settings: time 5.0 day
Escherichia coli [3] = experiment: Antibacterial activity against Escherichia coli JW0451-2 assessed as inhibition of bacterial growth measured after 18 to 48 hrs by microbroth dilution assay; format: functional, organism-based; settings: time 18-48 hrs
Staphylococcus aureus = experiment: Antibacterial activity against Staphylococcus aureus Newman assessed as inhibition of bacterial growth measured after 18 to 28 hrs by microbroth dilution assay; format: functional, organism-based; settings: time 18-28 hrs
Bacillus subtilis = experiment: Antibacterial activity against Bacillus subtilis DSM10T assessed as inhibition of bacterial growth measured after 18 to 28 hrs by microbroth dilution assay; format: functional, organism-based; settings: time 18-28 hrs
Candida albicans = experiment: Antifungal activity against Candida albicans DSM 1665 assessed as inhibition of fungal growth measured after 18 to 48 hrs by microbroth dilution assay; format: functional, organism-based; settings: time 18-48 hrs

Measured: Activity

C[C@H](CC[C@@H](O)C(C)(C)O)[C@H]1C[C@@H](O)[C@H]2[C@@H]3C(=O)C[C@H]4C[C@@H](O)CC[C@]4(C)[C@H]3CC[C@@]21C
inactive: all assays above

C[C@H](CC[C@@H](O)C(C)(C)O)[C@H]1C[C@@H](O)[C@H]2[C@@H]3C(=O)C[C@H]4C[C@@H](O)CC[C@]4(C)[C@H]3CC[C@@]21CO
inactive: all assays above
